Data published in publication PMC10066050, “Antimicrobial peptides CS-piscidin-induced cell death involves activation of RIPK1/PARP, and modification with myristic acid enhances its stability and tumor-targeting capability” (Discover. Oncology, 2023).
Where no end group is shown, it is not given here.

How the values were obtained:
[1] = system: human umbilical vein endothelial cells HUVEC; assay: CCK8 cell viability assay; assay type: cell-based; conditions: 24 h
Procedure: (§1) A2780, SKOV3, ID8, IOSE80, and HUVEC cells (2.0 × 10^3 per well) were seeded into 96-well plates in 100 μL culture medium. After 24 h of incubation, the medium was replaced with a medium containing various peptide concentrations. The cell viability after the peptide treatment was tested by CCK8 assay. Briefly, after 24 h treatment, 10 μL CCK8 was added to each well and incubated for 2 h. After incubation, the optical density (OD) at 450 nm was detected using a microplate reader. Cell viability was calculated using the formula: (%) = [D-D0]/[ D¯ -D0] × 100%. D was the OD value of the experimental group, D0 represented the OD value of the blank control group, while [ D¯ was the mean OD value of the control group.

[2] = system: normal ovary epithelial cell IOSE80; assay: CCK8 cell viability assay; assay type: cell-based; conditions: 24 h
Procedure: as §1

OVCA429 cells = assay type: cell-based, human; conditions: 24 h
ID8 cells = assay type: cell-based, mouse; conditions: 24 h
Procedure: as §1

ID8-Luc cells = assay: Ovarian cancer peritoneal spread mouse model; assay type: in vivo; conditions: C57BL/6 mice, 5 mpk intraperitoneally every other day, 10 administrations; ascites volume after sacrifice
Procedure: To create luciferase heredity stable ID8 cells, the PL-luciferase plasmid (Addgene, 21,471) was packaged by co-transfecting it with DVPR and VSVG packing plasmids using PEI in HEK293T. The virus-containing solution was then collected and cell debris was removed through a 0.45 μm filter. After infection, the cells were selected by treating them with 1 μg/mL puromycin for 3 days to eliminate the uninfected ID8 cells. The expression of luciferase in the cells was then confirmed using the Bio-Lumi™ Firefly Luciferase Reporter Gene Assay Kit (RG042S, Beyotime, China).
The animal experiment followed the Declaration of Helsinki guidelines and was approved by the Guangdong Medical University Animal Ethical Committee (GDY2102330). 5-week-old female C57BL/6 mice were obtained from Yancheng biological company and housed in an SPF laboratory at 26 ℃ with free access to water and food. Mice were intraperitoneally injected with 5 × 10^6 ID8-Luc-puro cells resuspended in 200 μL PBS. […] Body weight was measured every 5 days. After treatment, mice were injected with pentobarbitone and D-luciferin, and the luminescence signals were observed within 15 min using the live imaging system (In-vivo Xtreme, Bruker, USA). The fluorescence intensity was normalized and analyzed by Bruker MI SE software.

A2780 cells = assay type: cell-based, human; conditions: 24 h
Procedure: as §1

SKOV3 cells = assay type: cell-based, human; conditions: 24 h
Procedure: as §1

Question: For FFKRLRNKFRLMRQAWKDYR [CS-piscidin], which IC50 [1] is on record?
Answer: Its IC50 is 14.3 ± 3.03 µM.

Question: What about the IC50 [2] of the same sequence?
Answer: Its IC50 is 35.2 ± 3.14 µM.

Question: And the IC50 (OVCA429 cells)?
Answer: The IC50 was 27.4 ± 1.16 µM.

Question: What about the IC50 (ID8 cells) of the same sequence?
Answer: The IC50 was 19.8 ± 0.836 µM.

Question: What about the “ascites / cytotoxicity to normal cells in vivo” value (ID8-Luc cells) of the same sequence?
Answer: The value was “still produced ascites”.

Question: What about the IC50 (A2780 cells) of the same sequence?
Answer: The IC50 was 9.44 ± 0.666 µM.

Question: And the IC50 (SKOV3 cells)?
Answer: The IC50 was 37.4 ± 5.09 µM.
